Results taken from patent US20160355457A1, “Solid Forms Comprising(-)-O-Desmethylvenlafaxine And Uses Thereof” (Sunovion Pharmaceuticals Inc., priority 2007, published 2016).

Legend:
[1] = Moisture sorption/desorption (dynamic vapor sorption); format: physicochemical
Experimental: Moisture sorption/desorption data were collected on a VTI SGA-100 Vapor Sorption Analyzer. Sorption and desorption data were collected over a range of 5% to 95% relative humidity (RH) at 10% RH intervals under a nitrogen purge. For some samples, a step at 90% RH was added to the sorption cycle. Samples were not dried prior to analysis. Equilibrium criteria used for analysis were less than 0.0100% weight change in 5 minutes, with a maximum equilibration time of 3 hours if the weight criterion was not met. Data were not corrected for the initial moisture content of the samples. NaCl and PVP were used as calibration standards.

[2] = Stability properties of the solid form; format: physicochemical
[3] = decreased from 95% to 5% relative humidity
[4] = increased from 5% to 95% relative humidity

SMILES	loss in mass on decreasing relative humidity (dynamic vapor sorption) [1, 3]	gain in mass on increasing relative humidity (dynamic vapor sorption) [1, 4]	also measured
CN(C)C[C@@H](c1ccc(O)cc1)C1(O)CCCCC1.Cl [amorphous form, (−)-1-[2-(dimethylamino)-1-(4-hydroxyphenyl)ethyl]cyclohexanol monohydrochloride salt]	–	–	loss in mass on decreasing relative humidity (dynamic vapor sorption) ([1]; decreased from 95% to 5% relative humidity, monohydrochloride salt): about 32%; gain in mass on increasing relative humidity (dynamic vapor sorption) ([1]; increased from 5% to 95% relative humidity, monohydrochloride salt): about 36%
CN(C)C[C@@H](c1ccc(O)cc1)C1(O)CCCCC1.Cl [Form F, monohydrochloride salt of (−)-O-desmethylvenlafaxine]	about 33%	about 32%	–
CN(C)C[C@@H](c1ccc(O)cc1)C1(O)CCCCC1.Cl [Form E, monohydrochloride salt of (−)-O-desmethylvenlafaxine]	about 5.8%	about 4.7%	–
CN(C)C[C@@H](c1ccc(O)cc1)C1(O)CCCCC1.Cl [Form B, monohydrochloride salt of (−)-O-desmethylvenlafaxine]	about 26%	about 25%	–
CN(C)C[C@@H](c1ccc(O)cc1)C1(O)CCCCC1.Cl [Form G, monohydrochloride salt of (−)-O-desmethylvenlafaxine]	about 22%	about 23%	gain in mass on increasing relative humidity (dynamic vapor sorption) ([1]; increased from 5% to 90% relative humidity): about 3%
CN(C)C[C@@H](c1ccc(O)cc1)C1(O)CCCCC1.Cl [Form A, (−)-1-[2-(dimethylamino)-1-(4-hydroxyphenyl)ethyl]cyclohexanol hydrochloride salt]	–	–	stability properties [2]: excellent stability properties; loss in mass on decreasing relative humidity (dynamic vapor sorption) ([1]; decreased from 90% to 5% relative humidity): about 1%; gain in mass on increasing relative humidity (dynamic vapor sorption) ([1]; increased from 5% to 90% relative humidity, hydrochloride salt): < 1%
CN(C)C[C@@H](c1ccc(O)cc1)C1(O)CCCCC1.Cl [Form C, monohydrochloride salt of (−)-O-desmethylvenlafaxine]	about 27%	about 27%	–
